Experimental data reported in ChEMBL document CHEMBL1909046, “DrugMatrix in vitro pharmacology data”.

Key:
[1] = biological target: T1, C-C chemokine receptor type 4 (Homo sapiens, UniProt P51679); format: cell membranes, Membrane; conditions: chem-1; further: in other assays of this panel Not Active means under 50% inhibition at 10 µM
T1 sequence (P51679 whole entry): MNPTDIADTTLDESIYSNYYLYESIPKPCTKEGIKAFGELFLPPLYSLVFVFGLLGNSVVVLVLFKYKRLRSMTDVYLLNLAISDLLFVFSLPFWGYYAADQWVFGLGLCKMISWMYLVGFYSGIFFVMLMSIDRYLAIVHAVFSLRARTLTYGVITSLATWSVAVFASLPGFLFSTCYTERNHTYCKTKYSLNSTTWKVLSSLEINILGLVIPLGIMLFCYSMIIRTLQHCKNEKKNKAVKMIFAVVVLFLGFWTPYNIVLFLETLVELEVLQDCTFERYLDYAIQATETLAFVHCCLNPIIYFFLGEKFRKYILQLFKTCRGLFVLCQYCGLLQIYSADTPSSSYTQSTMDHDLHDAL

[2] = DRUGMATRIX: Glutamate, NMDA, Phencyclidine radioligand binding (ligand: [3H] TCP); format: cell membranes, Rattus norvegicus, Wistar, Cerebral cortex, Membrane; conditions: Not Active = under 50% inhibition at 10 µM
[3] = DRUGMATRIX: Calcium Channel Type L, Dihydropyridine radioligand binding (ligand: [3H] Nitrendipine); format: cell membranes, Rattus norvegicus, Wistar, Cerebral cortex, Membrane; conditions: Not Active = under 50% inhibition at 10 µM
[4] = biological target: T2, Cysteinyl leukotriene receptor 1 (Homo sapiens, UniProt Q9Y271); format: cell membranes, Membrane; conditions: cho-k1; further: in other assays of this panel Not Active means under 50% inhibition at 10 µM
T2 sequence (Q9Y271 whole entry): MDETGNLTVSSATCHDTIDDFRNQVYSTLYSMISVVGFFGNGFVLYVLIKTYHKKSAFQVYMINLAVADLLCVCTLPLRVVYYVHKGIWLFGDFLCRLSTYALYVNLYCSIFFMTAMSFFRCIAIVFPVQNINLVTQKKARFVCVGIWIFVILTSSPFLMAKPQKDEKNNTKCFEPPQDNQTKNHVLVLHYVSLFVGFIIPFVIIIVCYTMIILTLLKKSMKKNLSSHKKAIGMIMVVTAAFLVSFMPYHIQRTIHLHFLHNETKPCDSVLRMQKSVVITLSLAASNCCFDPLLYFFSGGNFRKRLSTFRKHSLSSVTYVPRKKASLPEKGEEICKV

[5] = biological target: T3, Neuropeptide Y receptor type 2 (Homo sapiens, UniProt P49146); format: cell membranes, Membrane; conditions: kan-ts; further: in other assays of this panel Not Active means under 50% inhibition at 10 µM
T3 sequence (P49146 whole entry): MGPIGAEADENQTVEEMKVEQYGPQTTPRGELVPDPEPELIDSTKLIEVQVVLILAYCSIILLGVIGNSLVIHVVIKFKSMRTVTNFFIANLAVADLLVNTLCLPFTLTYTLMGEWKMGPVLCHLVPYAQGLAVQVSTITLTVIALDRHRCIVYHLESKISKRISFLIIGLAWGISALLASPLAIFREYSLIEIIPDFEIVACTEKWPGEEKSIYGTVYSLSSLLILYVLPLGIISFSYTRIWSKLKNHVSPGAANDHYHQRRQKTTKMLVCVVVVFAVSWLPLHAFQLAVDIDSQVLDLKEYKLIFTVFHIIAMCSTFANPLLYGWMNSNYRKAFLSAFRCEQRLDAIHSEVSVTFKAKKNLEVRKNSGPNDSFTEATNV

[6] = DRUGMATRIX: Leukotriene, BLT (LTB4) radioligand binding (ligand: [3H]LTB4); format: cell membranes, Membrane; conditions: u-937; Not Active = under 50% inhibition at 10 µM
[7] = biological target: Voltage-gated inwardly rectifying potassium channel KCNH2 (Homo sapiens, UniProt Q12809); conditions: hek293; further: in other assays of this panel Not Active means under 50% inhibition at 10 µM
Substance-P receptor = Substance-P receptor (Homo sapiens, UniProt P25103); format: cell membranes, Membrane; conditions: cho; further: in other assays of this panel Not Active means under 50% inhibition at 10 µM
Melanocortin receptor 3 = Melanocortin receptor 3 (Homo sapiens, UniProt P41968); format: cell membranes, Membrane; conditions: hek293; further: in other assays of this panel Not Active means under 50% inhibition at 10 µM
Cytochrome P450 2E1 = Cytochrome P450 2E1 (Homo sapiens, UniProt P05181); conditions: bti-tn-5b1-4; further: in other assays of this panel Not Active means under 50% inhibition at 10 µM
Cytochrome P450 2E1, sequence (P05181 whole entry): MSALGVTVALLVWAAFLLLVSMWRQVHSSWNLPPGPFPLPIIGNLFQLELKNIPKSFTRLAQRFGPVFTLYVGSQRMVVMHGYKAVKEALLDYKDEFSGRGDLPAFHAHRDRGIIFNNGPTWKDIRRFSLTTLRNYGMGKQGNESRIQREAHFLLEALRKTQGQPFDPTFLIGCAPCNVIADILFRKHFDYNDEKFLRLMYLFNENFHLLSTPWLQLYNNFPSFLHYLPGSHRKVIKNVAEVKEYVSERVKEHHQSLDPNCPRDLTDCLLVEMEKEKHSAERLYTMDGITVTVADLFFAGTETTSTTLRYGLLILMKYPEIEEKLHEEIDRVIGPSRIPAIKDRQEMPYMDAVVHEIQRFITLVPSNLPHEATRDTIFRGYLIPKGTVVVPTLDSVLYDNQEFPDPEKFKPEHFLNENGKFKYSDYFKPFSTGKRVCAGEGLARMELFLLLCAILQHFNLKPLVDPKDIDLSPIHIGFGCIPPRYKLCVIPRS

Substance-P receptor, sequence (P25103 whole entry): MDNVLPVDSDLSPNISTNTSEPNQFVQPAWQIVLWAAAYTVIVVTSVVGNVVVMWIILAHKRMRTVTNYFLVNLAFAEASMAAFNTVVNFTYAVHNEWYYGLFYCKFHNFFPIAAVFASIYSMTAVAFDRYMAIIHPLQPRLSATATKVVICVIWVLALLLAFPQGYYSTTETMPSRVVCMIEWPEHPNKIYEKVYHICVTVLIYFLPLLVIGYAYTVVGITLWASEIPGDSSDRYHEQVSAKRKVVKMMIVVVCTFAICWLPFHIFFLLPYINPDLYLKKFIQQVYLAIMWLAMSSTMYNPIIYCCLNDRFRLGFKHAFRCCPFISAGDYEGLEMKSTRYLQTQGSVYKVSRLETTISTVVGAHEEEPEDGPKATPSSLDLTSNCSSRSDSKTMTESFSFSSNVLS
Voltage-gated inwardly rectifying potassium channel KCNH2, sequence (Q12809 whole entry): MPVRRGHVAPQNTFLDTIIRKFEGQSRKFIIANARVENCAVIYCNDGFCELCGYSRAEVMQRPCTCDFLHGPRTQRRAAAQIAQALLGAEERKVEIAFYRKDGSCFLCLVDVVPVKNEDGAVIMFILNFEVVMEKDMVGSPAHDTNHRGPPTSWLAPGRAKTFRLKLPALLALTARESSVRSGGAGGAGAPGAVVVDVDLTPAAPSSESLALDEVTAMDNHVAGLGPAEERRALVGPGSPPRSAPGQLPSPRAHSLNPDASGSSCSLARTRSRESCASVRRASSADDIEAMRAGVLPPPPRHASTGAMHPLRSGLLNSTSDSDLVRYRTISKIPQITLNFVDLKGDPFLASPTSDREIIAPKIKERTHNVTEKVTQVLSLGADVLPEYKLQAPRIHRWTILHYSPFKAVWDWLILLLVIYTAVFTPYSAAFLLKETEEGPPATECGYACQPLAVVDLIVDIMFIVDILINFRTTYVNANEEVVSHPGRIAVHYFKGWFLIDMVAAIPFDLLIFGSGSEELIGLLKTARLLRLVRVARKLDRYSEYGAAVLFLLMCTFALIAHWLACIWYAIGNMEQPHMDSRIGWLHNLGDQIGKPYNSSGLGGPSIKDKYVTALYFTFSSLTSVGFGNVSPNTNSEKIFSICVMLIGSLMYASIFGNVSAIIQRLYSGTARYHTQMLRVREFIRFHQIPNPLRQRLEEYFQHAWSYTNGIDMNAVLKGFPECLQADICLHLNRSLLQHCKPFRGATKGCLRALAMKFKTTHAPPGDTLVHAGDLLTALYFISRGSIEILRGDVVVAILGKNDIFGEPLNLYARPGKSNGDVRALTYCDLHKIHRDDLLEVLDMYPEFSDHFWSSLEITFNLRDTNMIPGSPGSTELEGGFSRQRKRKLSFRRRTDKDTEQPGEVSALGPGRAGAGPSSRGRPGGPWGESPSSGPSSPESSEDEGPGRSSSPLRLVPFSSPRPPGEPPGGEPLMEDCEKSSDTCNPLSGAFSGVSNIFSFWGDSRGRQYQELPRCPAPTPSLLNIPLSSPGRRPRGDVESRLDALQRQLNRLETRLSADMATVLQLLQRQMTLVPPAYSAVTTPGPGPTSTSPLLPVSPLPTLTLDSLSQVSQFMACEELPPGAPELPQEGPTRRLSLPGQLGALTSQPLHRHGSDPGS
Melanocortin receptor 3, sequence (P41968 whole entry): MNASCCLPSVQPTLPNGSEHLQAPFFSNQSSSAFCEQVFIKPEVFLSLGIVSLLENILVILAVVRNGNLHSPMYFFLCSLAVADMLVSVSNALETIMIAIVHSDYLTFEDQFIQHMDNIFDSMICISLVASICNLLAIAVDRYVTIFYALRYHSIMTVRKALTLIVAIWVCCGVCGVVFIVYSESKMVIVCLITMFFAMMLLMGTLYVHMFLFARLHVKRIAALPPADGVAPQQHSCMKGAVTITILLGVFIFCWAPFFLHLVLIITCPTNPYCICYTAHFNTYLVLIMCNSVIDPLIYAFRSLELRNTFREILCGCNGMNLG

COc1ccc(CN2CCNCC2)c(OC)c1OC [TRIMETAZIDINE]
Not Active: IC50 [1] | IC50 [2] | Ki [2] | IC50 [3] | Ki [3] | IC50 [4] | IC50 [5] | IC50 [6] | Ki [6] | IC50 [7] | Ki [7] | IC50 (Substance-P receptor) | IC50 (Melanocortin receptor 3)

CC(C)OC(=O)C(C)(C)Oc1ccc(C(=O)c2ccc(Cl)cc2)cc1 [FENOFIBRATE]
Not Active: IC50 [1] | IC50 (Cytochrome P450 2E1) | Ki (Cytochrome P450 2E1) | IC50 [4] | IC50 [5] | IC50 [7] | Ki [7] | IC50 (Substance-P receptor) | IC50 (Melanocortin receptor 3)

CC[C@@H](CO)NC(=O)[C@@H]1C=C2c3cccc4c3c(cn4C)C[C@H]2N(C)C1 [METHYSERGIDE]
Not Active: IC50 [1] | IC50 (Cytochrome P450 2E1) | Ki (Cytochrome P450 2E1) | IC50 [4] | IC50 [5] | IC50 [7] | Ki [7] | IC50 (Substance-P receptor) | IC50 (Melanocortin receptor 3)

CCN(CC)CC#CCOC(=O)C(O)(c1ccccc1)C1CCCCC1 (stereo unspecified) [OXYBUTYNIN]
Not Active: IC50 [1] | IC50 (Cytochrome P450 2E1) | Ki (Cytochrome P450 2E1) | IC50 [4] | IC50 [5] | IC50 [7] | Ki [7] | Ki (Substance-P receptor) | IC50 (Melanocortin receptor 3)

O=c1[nH]c2ccccc2n1CCCN1CCC(n2c(=O)[nH]c3cc(Cl)ccc32)CC1 [DOMPERIDONE]
Not Active: IC50 [1] | IC50 [4] | IC50 [5] | IC50 [7] | Ki [7] | IC50 (Substance-P receptor) | IC50 (Melanocortin receptor 3)

CC(=O)Nc1nnc(S(N)(=O)=O)s1 [ACETAZOLAMIDE]
Not Active: IC50 [1] | IC50 (Cytochrome P450 2E1) | Ki (Cytochrome P450 2E1) | IC50 [4] | IC50 [5] | IC50 [7] | Ki [7] | IC50 (Substance-P receptor) | IC50 (Melanocortin receptor 3)

OCCN1CCN(CCCN2c3ccccc3Sc3ccc(C(F)(F)F)cc32)CC1 [FLUPHENAZINE]
Not Active: IC50 [1] | IC50 (Cytochrome P450 2E1) | Ki (Cytochrome P450 2E1) | IC50 [4] | IC50 [5] | IC50 (Substance-P receptor) | IC50 (Melanocortin receptor 3)

O=c1n(CCCN2CCN(c3cccc(Cl)c3)CC2)nc2ccccn12 [TRAZODONE]
Not Active: IC50 [1] | IC50 (Cytochrome P450 2E1) | Ki (Cytochrome P450 2E1) | IC50 [4] | IC50 [5] | IC50 [7] | Ki [7] | IC50 (Substance-P receptor) | IC50 (Melanocortin receptor 3)

CCCc1nn(C)c2c(=O)[nH]c(-c3cc(S(=O)(=O)N4CCN(C)CC4)ccc3OCC)nc12
Not Active: IC50 [1] | IC50 (Cytochrome P450 2E1) | Ki (Cytochrome P450 2E1) | IC50 [2] | Ki [2] | IC50 [3] | Ki [3] | IC50 [4] | IC50 [5] | IC50 [6] | Ki [6] | IC50 (Substance-P receptor) | IC50 (Melanocortin receptor 3)

CCS(=O)(=O)CCn1c([N+](=O)[O-])cnc1C [TINIDAZOLE]
Not Active: IC50 [1] | IC50 [2] | Ki [2] | IC50 [3] | Ki [3] | IC50 [4] | IC50 [5] | IC50 [6] | Ki [6] | IC50 [7] | Ki [7] | IC50 (Substance-P receptor) | IC50 (Melanocortin receptor 3)

COc1cc(C(=O)NS(=O)(=O)c2ccccc2C)ccc1Cc1cn(C)c2ccc(NC(=O)OC3CCCC3)cc12 [ZAFIRLUKAST]
Not Active: IC50 [1] | IC50 (Cytochrome P450 2E1) | Ki (Cytochrome P450 2E1) | IC50 [2] | Ki [2] | IC50 [3] | Ki [3] | IC50 [5] | IC50 [6] | Ki [6] | IC50 [7] | Ki [7] | IC50 (Substance-P receptor) | IC50 (Melanocortin receptor 3)

CN1C2CCCC1CC(NC(=O)c1nn(C)c3ccccc13)C2 (stereo unspecified) [GRANISETRON]
Not Active: IC50 [1] | IC50 (Cytochrome P450 2E1) | Ki (Cytochrome P450 2E1) | IC50 [4] | IC50 [5] | IC50 [7] | Ki [7] | IC50 (Substance-P receptor) | IC50 (Melanocortin receptor 3)
